How the values were obtained:
[1] = tested on: OA-HACs; experiment: Duration of chondrocyte phenotype modulation, single versus multiple peptide addition, 10-day follow-up; type: cell-based, human; settings: 100 nM; for COL10A1 gene expression, continuous exposure / inhibition of MMP13 and COX-2 expression, continuous exposure / COL2A1 mRNA expression, continuous exposure / inhibition of COL10A1, MMP13, and COX-2 gene expression after single dose, up to and including day / expression of COL10A1, MMP13, and COX-2 at day 10, single dose / timing of action on COL2A1 after single dose: OA-HAC pool (n = 3 donors); for COL10A1 gene expression, continuous exposure / inhibition of MMP13 and COX-2 expression, continuous exposure: multiple addition; for COL10A1 gene expression, continuous exposure: 10 days (Figure 4B); for inhibition of MMP13 and COX-2 expression, continuous exposure: 10 days (Figures 4C, 4D); for COL2A1 mRNA expression, continuous exposure: peptide added every other day (multiple), 10 days (Figure 4A); for inhibition of COL10A1, MMP13, and COX-2 gene expression after single dose, up to and including day: single dose at start, sampled every 2 days; for timing of action on COL2A1 after single dose: compared with timing for COL10A1, MMP13, COX-2; for detectable changes in chondrocyte gene expression phenotype after a single exposure: OA-HAC pool
Procedure: The duration of chondrocyte phenotypic change induced by candidate peptides p[63−82] and p[113−132] was determined by exposing OA-HACs to a single dose of peptide or continuously keeping the peptides present during OA-HAC culture. In both cases, the phenotype of the OA-HACs was analyzed every other day during a 10-day follow-up. Non-OA-HACs were used as a reference for chondrocyte phenotype status.
Figure 4 Duration of chondrocyte phenotype modulation by BMP7-derived peptides A pool of OA-HACs (n = 3 donors) was cultured in the presence or absence of 100 nM peptides p[63−82] or p[113−132] and compared to a pool of human articular chondrocytes from a non-OA source. The medium was changed every 2 days. Peptides were added at the start of the experiment and subsequently at every medium change (multiple) or only at the start of the experiment and not during every subsequent medium change (single). At days 0, 2, 4, 6, 8, and 10 in culture, samples were harvested and analyzed for the expression of the indicated mRNAs by quantitative real-time PCR (normalized for 28S rRNA expression) (A) COL2A1 mRNA expression. (B) COL10A1 mRNA expression. (C) MMP13 mRNA expression. (D) COX-2 mRNA expression. In graphs, error bars represent mean ± SEM; data are presented relative to the “control OA” condition of each time point. Statistical differences were calculated to control conditions. Error bars represent mean ± SEM, and statistical significance for peptide conditions or control non-OA versus control OA condition as determined by unpaired two-tailed Student’s t test is represented as ∗p < 0.05, ∗∗p < 0.01, and ∗∗∗p < 0.001.
For the peptide-screening and alanine-scanning experiments, cDNA was prepared using the Cells-to-Ct kit (Invitrogen) according to the manufacturer’s protocol. For the other experiments, cells or homogenized tissues (Mikro-Dismembrator; Braun Biotech International) were lysed in TRIzol (Life Technologies) and RNA isolation and cDNA synthesis were performed as described earlier.[27]^,[57] Quantitative real-time PCR was performed using Takyon qPCR Master Mix plus blue for SYBR Green (Eurogentec). A CFX96 Real-Time PCR Detection System (Bio-Rad) was used for amplification: initial denaturation 95°C for 10 min, followed by 40 cycles of amplification (denaturing 15 s at 95°C and annealing 1 min at 60°C). Data were analyzed using the standard curve method, mRNA expression was normalized to a reference gene (28S rRNA), and gene expression was calculated as fold change as compared to control conditions.

[2] = tested on: rat MMT model; experiment: Rat medial meniscal tear (MMT) model, histopathological scoring of knee joints; type: in vivo; settings: for histology of medial tibia plateau (toluidine blue), cartilage-degenerative changes: 100 ng in 50 μL saline intra-articular, two times per week from 1 week post-surgery, 10 rats per group (Figure 7A); for total joint score: versus saline (Figure 7E)
Procedure: We next tested whether peptide p[63−82] has the potency to delay the progression of trauma-induced cartilage degeneration in the rat MMT model.[34]^,[35] MMT damage was unilaterally initiated. Starting at 1 week post-MMT surgery, rats were two times per week intra-articularly injected with saline, 100 ng peptide p[63−82] in saline, or 100 ng scrambled peptide p[63−82] in saline. At 4 weeks post-MMT surgery, rats were sacrificed for histopathological scoring of the MMT knee joints. […] However, cartilage-degenerative changes were less apparent in the p[63−82] group (Figure 7A, middle panel). […] The femoral compartment also developed cartilage degeneration but less pronounced. This compartment is also more variable in its degenerative changes.[35] […] Cartilage-degeneration scores in zones 2 and 3 were generally low, as is known for the rat MMT model.[35] […] Other scored histopathological items can be found in Figure S5.
Figure 7 BMP7-derived peptide p[63−82] in rat MMT model The potency of BMP7 peptide p[63−82] to delay the progression of trauma-induced cartilage degeneration was tested in the rat MMT model. 1 week post-MMT-surgery, rats were two times per week intra-articularly injected with saline, 100 ng peptide p[63−82] in saline, or 100 ng scrambled peptide p[63−82] in saline (10 rats per group). All injection volumes were 50 μL. At 4 weeks post-MMT surgery, rats were sacrificed for histopathological scoring of the MMT knee joints. (A) Representative micrographs of toluidine blue-stained sections of medial aspects of the MMT knee joints. Conditions are indicated. (B) Medial tibia cartilage-degeneration scores. (C) Medial femur cartilage-degeneration scores. (D) Medial tibia cartilage-degeneration depth ratios. Scores and ratios are shown for zones 1, 2, and 3 individually.[35] The total scores/ratio are cumulative for zone 1, 2, and 3. (E) Total joint scores. Individual data points represent individual rats. Error bars represent mean ± SEM. Statistical differences were calculated between groups (Mann-Whitney U test), and ∗p < 0.05, ∗∗p < 0.01, and ∗∗∗p < 0.001.
The study was conducted via a contract research project at Bolder BioPATH (Boulder, CO, USA); study designs and animal usage were approved by their Institutional Animal Care and Use Committee (IACUC) prior to study initiation (IACUC protocols BBP13-029 and BBP12-004). Animal care, including room, cage, and equipment sanitation, conformed to accepted guidelines cited in the Guide for the Care and Use of Laboratory Animals (the Guide; 2011) and the applicable Bolder BioPATH standard operating procedures (SOPs). Male Lewis rats (n = 48; ∼283 g; Envigo RMS, Indianapolis, IN, USA) underwent a unilateral MMT on study day 0, as established earlier by Bendele et al.[59]^,[60] Rats were intra-articularly injected on days 7, 10, 14, 17, 21, and 24 with saline (0.9% NaCl, 50 μL/injection/animal), peptide p[63−82] (100 ng [in 50 μL saline]/injection/animal), or scrambled peptide p[63−82] (100 ng [in 50 μL saline]/injection/animal). The animals were euthanized for necropsy 28 days post-surgery.[59]^,[60] Right (surgery) knees from all animals were collected, trimmed of muscle (patella removed), and placed in 10% neutral-buffered formalin and then transferred to 70% ethanol for processing for microscopy. Operated joints were cut into two approximately equal halves in the frontal plane and embedded in paraffin. One section was cut from each knee and stained with toluidine blue. The worst-case scenario for the two halves on each slide was determined and used for evaluation. The tissues were analyzed microscopically by a veterinary pathologist as described earlier[35] (Tables S4–S13).

[3] = 100 ng intra-articular two times per week, 4 weeks (Figure 7D)
[4] = 100 ng intra-articular two times per week, 4 weeks (Figures 7B, 7C)
[5] = 100 ng intra-articular two times per week, 4 weeks

Substance | COL10A1 gene expression, continuous exposure [1] | inhibition of MMP13 and COX-2 expression, continuous exposure [1] | COL2A1 mRNA expression, continuous exposure [1] | inhibition of COL10A1, MMP13, and COX-2 gene expression after single dose, up to and including day [1] | expression of COL10A1, MMP13, and COX-2 at day 10, single dose [1] | timing of action on COL2A1 after single dose [1] | detectable changes in chondrocyte gene expression phenotype after a single exposure [1] | histology of medial tibia plateau (toluidine blue), cartilage-degenerative changes ([2]; 4 weeks) | medial femur cartilage-degeneration score, zone 1, versus saline ([2]; 100 ng intra-articular two times per week, 4 weeks (Figure 7C)) | depth ratio of tibia cartilage degeneration, zone 1, versus saline [2, 3] | total depth ratio score of tibia cartilage degeneration, versus saline [2, 3] | cartilage-degeneration scores, p[63-82] versus scrambled p[63-82] [2, 4] | combined (total) tibia and femur cartilage-degeneration scores, versus saline [2, 4] | medial tibia cartilage-degeneration score, zone 1, versus saline ([2]; 100 ng intra-articular two times per week, 4 weeks, Mann-Whitney U test (Figure 7B)) | total joint score [2, 5] | total joint score ([2]; 100 ng intra-articular two times per week, 4 weeks, listed as p[62−83]) | cartilage-degeneration scores of tibia or femur in any of the 3 zones, versus saline [2, 4]
H-AAYYSEGESAFPLNSYMNAT-OH [p[63−82]] | steadily decreased over time | continuously observed during the treatment period | overtime increasing | up to 8 day | indistinguishable from non-treated OA HACs | not detectable anymore from day 8 onward | up to 8 days | less apparent | trend toward a statistically significant lower | significantly lower | significantly lower | did not reveal differences that were statistically significant | significantly lower | significantly lower | significantly lower | significantly improve | 
H-SVLYFDDSSNVILKKYRNMV-OH [p[113−132]] | steadily decreased over time | continuously observed during the treatment period | overtime increasing | up to 8 day | indistinguishable from non-treated OA HACs | similar | up to 8 days |  |  |  |  |  |  |  |  |  | 
H-SEASPAMYYLNATANFYESG-OH [scrambled p[63−82], scrambled version of peptide p[63−82], reference compound] |  |  |  |  |  |  |  | diminished toluidine blue staining and lower chondrocyte cellularity at the lateral side of the medial tibia plateau, as well as cartilage degeneration |  |  |  |  | Neither was there a significant difference |  | in between the values for saline and p[63−82] peptide but was not statistically different compared to either one of the saline or p[63−82] conditions |  | no statistically significant differences

Reference: PMC8022858, “Discovery of bone morphogenetic protein 7-derived peptide sequences that attenuate the human osteoarthritic chondrocyte phenotype” (Molecular Therapy. Methods & Clinical Development, 2021)
